Test results published in patent US20060188913A1, “Methods and products for enhancing immune responses using imidazoquinoline compounds” (University of Iowa Research Foundation, priority 2001, published 2006).

Experiments:
[1] = target: T1, hTLR7 (Homo sapiens, UniProt Q9NYK1); assay: NF-kappa B luciferase activation in 293T cells transiently transfected with hTLR7; assay type: cell-based; settings: hTLR7-transfected 293T cells
T1 construct: plasmids (pcDNA3.1 constructs) coding for full length hTLR2, hTLR7, hTLR8 and hTLR9; expressed in transfected cells; host or cells: 293T cells
T1 sequence (Q9NYK1 27-1049): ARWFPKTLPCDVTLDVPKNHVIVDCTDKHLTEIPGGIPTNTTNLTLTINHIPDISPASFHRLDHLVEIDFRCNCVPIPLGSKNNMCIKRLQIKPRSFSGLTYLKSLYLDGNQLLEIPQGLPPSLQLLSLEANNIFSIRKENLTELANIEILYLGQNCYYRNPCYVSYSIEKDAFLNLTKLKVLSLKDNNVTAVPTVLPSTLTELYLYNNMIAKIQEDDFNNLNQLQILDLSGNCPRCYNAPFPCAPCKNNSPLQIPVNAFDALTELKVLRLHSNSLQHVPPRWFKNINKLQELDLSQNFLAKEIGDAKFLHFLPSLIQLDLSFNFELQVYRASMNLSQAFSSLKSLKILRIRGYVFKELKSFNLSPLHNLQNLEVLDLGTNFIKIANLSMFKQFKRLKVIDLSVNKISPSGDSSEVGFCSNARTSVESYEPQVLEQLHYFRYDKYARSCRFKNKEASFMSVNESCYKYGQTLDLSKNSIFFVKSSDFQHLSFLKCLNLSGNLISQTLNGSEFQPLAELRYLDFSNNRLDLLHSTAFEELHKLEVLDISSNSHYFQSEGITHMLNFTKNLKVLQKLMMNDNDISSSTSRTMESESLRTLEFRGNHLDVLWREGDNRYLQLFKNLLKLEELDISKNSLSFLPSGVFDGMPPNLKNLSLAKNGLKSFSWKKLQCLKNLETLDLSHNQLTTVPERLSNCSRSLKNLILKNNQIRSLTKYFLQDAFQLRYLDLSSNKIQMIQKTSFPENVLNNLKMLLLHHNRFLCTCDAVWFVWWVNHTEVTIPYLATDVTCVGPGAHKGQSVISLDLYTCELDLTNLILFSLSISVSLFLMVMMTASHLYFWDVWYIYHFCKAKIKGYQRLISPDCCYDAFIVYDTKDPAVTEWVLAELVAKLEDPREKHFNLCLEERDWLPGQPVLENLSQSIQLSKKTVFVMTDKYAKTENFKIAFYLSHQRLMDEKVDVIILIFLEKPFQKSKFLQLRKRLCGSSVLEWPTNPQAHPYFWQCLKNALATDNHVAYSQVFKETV
Description: (§1) Cells used for transfections were 293T (human embryo kidney cells, T-antigen transfected) or 293-TLR9-Luc (stable transfectants, human embryo kidney cells expressing the human TLR9 receptor and containing a genomic NF-kappa B-luciferase cassette).
(§2) Transfections were performed in six-well plates. Cells were plated the day before transfection at 4×10^5/well in DMEM+10% FCS.
(§3) Constructs: TLR cDNAs were cloned into pcDNA3.1. NF-kappa B activation was measured by using an 5× NF-kappa B-Luciferase construct (Stratagene). Transfection efficiency was determined by using a beta-galactosidase (beta-gal) reporter construct (p beta-Gal-Control, Clontech).
(§4) Stimulation was performed 24 h after transfection. Medium of the cells was reduced to 1 ml (without medium change) and cells were stimulated with indicated amounts of R-848, LPS, ODN 8954, 2006 and IL-1 beta for 16 h.
(§5) Cell extracts were prepared by lysing the cells in 100 μl reporter lysis buffer using the freeze-thaw method. NF-kappa B stimulation was measured through luciferase activity (Promega). All data were normalized for beta-gal expression. Stimulation indices were calculated in reference to luciferase activity of medium without addition of ODN.
(§6) 293T cells, stably transfected with a NF-kappa B-luciferase reporter construct, were transiently transfected with plasmids (pcDNA3.1 constructs) coding for full length hTLR2, hTLR7, hTLR8 and hTLR9. […]

[2] = target: T2, hTLR8 (Homo sapiens, UniProt Q9NR97); assay: NF-kappa B luciferase activation in 293T cells transiently transfected with hTLR8; assay type: cell-based; settings: hTLR8-transfected 293T cells
T2 construct: plasmids (pcDNA3.1 constructs) coding for full length hTLR2, hTLR7, hTLR8 and hTLR9; expressed in transfected cells; host or cells: 293T cells
T2 sequence (Q9NR97 27-1041): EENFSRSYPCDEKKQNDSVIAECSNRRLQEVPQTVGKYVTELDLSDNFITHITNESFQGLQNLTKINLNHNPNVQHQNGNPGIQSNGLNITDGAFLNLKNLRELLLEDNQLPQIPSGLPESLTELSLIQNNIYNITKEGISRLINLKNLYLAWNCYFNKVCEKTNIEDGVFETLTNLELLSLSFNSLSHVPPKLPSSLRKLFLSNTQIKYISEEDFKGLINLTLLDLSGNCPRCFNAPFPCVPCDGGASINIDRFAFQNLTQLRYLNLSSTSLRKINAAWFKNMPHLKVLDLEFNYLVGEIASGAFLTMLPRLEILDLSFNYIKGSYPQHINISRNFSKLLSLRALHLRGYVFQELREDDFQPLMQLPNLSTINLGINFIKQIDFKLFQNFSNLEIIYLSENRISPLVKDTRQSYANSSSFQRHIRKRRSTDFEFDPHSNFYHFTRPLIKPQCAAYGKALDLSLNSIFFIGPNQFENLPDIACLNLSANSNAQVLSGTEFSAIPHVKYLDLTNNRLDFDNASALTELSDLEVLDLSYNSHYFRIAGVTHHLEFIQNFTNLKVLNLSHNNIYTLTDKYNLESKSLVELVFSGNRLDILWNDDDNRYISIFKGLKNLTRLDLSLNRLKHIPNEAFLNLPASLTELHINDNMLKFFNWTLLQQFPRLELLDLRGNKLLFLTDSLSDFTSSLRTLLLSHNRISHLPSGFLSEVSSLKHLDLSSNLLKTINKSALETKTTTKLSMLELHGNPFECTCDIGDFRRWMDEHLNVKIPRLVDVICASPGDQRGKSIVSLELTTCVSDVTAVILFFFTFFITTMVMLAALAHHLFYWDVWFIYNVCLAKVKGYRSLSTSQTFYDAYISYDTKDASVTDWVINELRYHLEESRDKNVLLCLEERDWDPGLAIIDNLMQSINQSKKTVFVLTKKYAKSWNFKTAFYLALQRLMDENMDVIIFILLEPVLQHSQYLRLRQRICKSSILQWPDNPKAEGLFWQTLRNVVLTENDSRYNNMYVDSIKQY
Description: as §1, §2, §3, §4, §5, §6

[3] = system: human PBMC; assay: IFN-gamma secretion by human PBMC (ELISA); assay type: cell-based; settings: 48 hours, compared to R-848, not shown
Description: (§7) This experiment investigated the induction of the Th1 cytokine IFN-gamma as well as the Th1-related chemokine IP-10 (IFN-gamma inducible protein). Unfractionated human PBMC from three donors were incubated for 48 hours in the presence of varying concentrations of R-848 (0.01-1.0 μg/ml), varying concentrations of CpG ODN 2006 (0.2-3.0 μg/ml), varying concentrations of negative control ODN 5177 (0.2-3.0 μg/ml), SEB (50 ng/ml), or media alone, and then the concentrations of IP-10 and IFN-gamma in the supernatant were measured by ELISA.

[4] = system: human PBMC; assay: IP-10 secretion by human PBMC (ELISA); assay type: cell-based; settings: 48 hours, ODN 0.2-3.0 μg/ml versus R-848 0.01-1.0 μg/ml, FIG. 6A
Description: as §7
In FIG. 6B, the combined effects of R-848 and CpG ODN (e.g., #2006) on IP-10 secretion are shown. Human PBMCs from three different donors were incubated for 48 hours with the indicated concentrations of ODNs and R-848, either individually or together. Supernatants were harvested and IP-10 was measured by ELISA. The data represent mean cytokine amounts.

[5] = system: NF-kappa B luciferase reporter gene; assay: NF-kappa B luciferase reporter in transfected 293T cells, TLR-independent positive control; assay type: cell-based, human; settings: FIG. 2A
Description: as §1, §4, §5
293T cells, stably transfected with a NF-kappa B-luciferase reporter construct, were transiently transfected with plasmids (pcDNA3.1 constructs) coding for full length hTLR2, hTLR7, hTLR8 and hTLR9. All transfections were normalized to beta-galactosidase activity. Twenty-four hours following transfection, cells were stimulated with R-848, LPS, CpG ODN 8954 (5′ […] 3′, SEQ ID NO:4), CpG ODN 2006, or IL-1 and then assayed for luciferase activity 16 h after stimulation. Each experiment was done at least twice with similar results.

[6] = target: T2, hTLR8; assay: IL-8 production in 293 fibroblasts transiently expressing hTLR8; assay type: cell-based; settings: CpG-ODN 2 μM, LPS 100 ng/ml
Description: (§8) The cloned human TLR7 and human TLR8 cDNA were cloned into the expression vector pCDNA3. 1 (−) from Invitrogen using the NotI site. Utilizing a “gain of function” assay, hTLR7 and hTLR8 expression vectors were transiently expressed in human 293 fibroblasts (ATCC, CRL-1573) using the calcium phosphate method. Activation was monitored by IL-8 production after stimulus with CpG-ODN (2006 or 1668, 2 μM) or LPS (100 ng/ml).

[7] = target: T1, hTLR7; assay: IL-8 production in 293 fibroblasts transiently expressing hTLR7; assay type: cell-based; settings: CpG-ODN 2 μM, LPS 100 ng/ml
Description: as §8

[8] = target: T3, hTLR2 (Homo sapiens, UniProt O60603); assay: NF-kappa B luciferase activation in 293T cells transfected with hTLR2; assay type: cell-based
T3 construct: plasmids (pcDNA3.1 constructs) coding for full length hTLR2, hTLR7, hTLR8 and hTLR9; expressed in transfected cells; host or cells: 293T cells carrying an NF-kappa B-luciferase reporter
T3 sequence (O60603 21-784): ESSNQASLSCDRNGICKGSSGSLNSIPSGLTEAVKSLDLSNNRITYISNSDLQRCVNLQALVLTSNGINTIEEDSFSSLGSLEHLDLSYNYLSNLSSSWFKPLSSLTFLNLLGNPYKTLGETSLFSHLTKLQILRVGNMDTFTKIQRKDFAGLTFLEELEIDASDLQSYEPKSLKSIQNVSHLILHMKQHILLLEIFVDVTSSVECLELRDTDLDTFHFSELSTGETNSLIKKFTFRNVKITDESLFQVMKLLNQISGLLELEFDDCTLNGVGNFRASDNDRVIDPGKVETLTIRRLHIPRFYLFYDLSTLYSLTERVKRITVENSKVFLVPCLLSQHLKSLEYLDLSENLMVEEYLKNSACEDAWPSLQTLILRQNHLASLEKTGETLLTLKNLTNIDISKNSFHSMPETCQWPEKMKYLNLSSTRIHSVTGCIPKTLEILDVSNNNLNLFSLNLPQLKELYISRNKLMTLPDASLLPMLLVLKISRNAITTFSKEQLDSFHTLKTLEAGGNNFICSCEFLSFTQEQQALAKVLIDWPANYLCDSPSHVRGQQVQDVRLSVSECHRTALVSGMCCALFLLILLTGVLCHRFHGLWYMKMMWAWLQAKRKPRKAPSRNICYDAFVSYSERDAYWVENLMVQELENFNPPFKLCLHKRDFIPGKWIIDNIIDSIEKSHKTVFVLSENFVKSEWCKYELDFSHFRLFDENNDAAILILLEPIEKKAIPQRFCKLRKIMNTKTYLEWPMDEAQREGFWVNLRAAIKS
Description: as §1, §2, §3, §4, §5, §6

Substance	NF-kappa B activation through hTLR7 (in words) [1]	NF-kappa B activation through hTLR8 (in words) [2]	activation monitored by IL-8 production [6]	activation monitored by IL-8 production [7]	further results
CpG ODN 8954: CpG ODN 5′ GGGGACGACGTCGTGGGGGGG 3′, SEQ ID NO:4 (listed as DNA, chemistry not fully specified)	Neither LPS nor the CpG ODN 8954 appeared to activate	Neither LPS nor the CpG ODN 8954 appeared to activate	–	–	–
ODN 5177: negative control ODN 5′ TCCGCCTGTGACATGCATT 3′; SEQ ID NO:5 (listed as DNA, chemistry not fully specified)	–	–	–	–	IFN-gamma induction [3]: The same result was obtained; IP-10 induction [4]: but not the negative control ODN 5177 induced similar amounts of IP-10
IL-1: cytokine used as positive control for NF-kappa B activation	–	–	–	–	activation of NF-kappa B luciferase reporter gene (in words) [5]: activated the NF-kappa B luciferase reporter gene in a TLR-independent manner
lipopolysaccharide [LPS]	Neither LPS nor the CpG ODN 8954 appeared to activate	Neither LPS nor the CpG ODN 8954 appeared to activate	None of the stimuli used activated	None of the stimuli used activated	NF-kappa B activation through hTLR2 (in words) [8]: activated by LPS
1668: CpG-ODN TCCATGACGTTCCTGATGCT, SEQ ID NO:12 (listed as DNA, chemistry not fully specified) [compound 1668]	–	–	None of the stimuli used activated	None of the stimuli used activated	–
